Laboratory results reported in ChEMBL document CHEMBL3596130 (Bioorg Med Chem Lett, 2015).
pEC50, pKi: −log10 of the molar value. Square brackets hold non-standard residues; d marks the D form. Peptide text beside a SMILES is read from it. * marks the point of attachment. Tyr(Nα,Nα-allyl2) = C=CCN(CC=C)[C@@H](Cc1ccc(O)cc1)C(=O)*; Aib = CC(C)(N)C(=O)O

Assays:
Mu-type opioid receptor = Mu-type opioid receptor (Homo sapiens, UniProt P35372); assay: Displacement of [3H]DAMGO from human MOR expressed in CHO cells; assay type: cell-based
Mu-type opioid receptor, sequence (P35372 whole entry): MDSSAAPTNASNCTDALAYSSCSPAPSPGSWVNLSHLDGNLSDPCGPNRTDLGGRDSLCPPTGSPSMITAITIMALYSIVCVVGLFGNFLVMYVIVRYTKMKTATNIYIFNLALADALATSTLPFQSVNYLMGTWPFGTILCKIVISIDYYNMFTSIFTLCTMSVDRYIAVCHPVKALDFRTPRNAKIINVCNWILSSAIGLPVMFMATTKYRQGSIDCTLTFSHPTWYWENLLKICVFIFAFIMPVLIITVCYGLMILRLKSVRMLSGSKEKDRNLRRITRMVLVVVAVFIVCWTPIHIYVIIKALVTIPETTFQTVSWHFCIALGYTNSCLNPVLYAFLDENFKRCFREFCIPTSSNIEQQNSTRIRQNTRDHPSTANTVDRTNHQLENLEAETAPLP

[1] = target: T1, Delta-type opioid receptor (Homo sapiens, UniProt P41143); assay: Displacement of [3H]DPDPE from human DOR expressed in CHO cells; assay type: cell-based
T1 sequence (P41143 whole entry): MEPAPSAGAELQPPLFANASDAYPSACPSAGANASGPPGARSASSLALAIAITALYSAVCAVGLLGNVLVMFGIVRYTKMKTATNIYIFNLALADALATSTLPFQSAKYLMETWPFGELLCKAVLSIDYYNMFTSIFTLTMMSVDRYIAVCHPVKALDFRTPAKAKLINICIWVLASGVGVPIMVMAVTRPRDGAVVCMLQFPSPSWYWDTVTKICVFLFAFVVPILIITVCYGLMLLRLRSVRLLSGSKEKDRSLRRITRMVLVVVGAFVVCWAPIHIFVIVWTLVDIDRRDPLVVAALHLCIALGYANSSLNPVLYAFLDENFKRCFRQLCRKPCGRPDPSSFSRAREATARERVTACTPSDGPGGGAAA

[2] = target: Kappa-type opioid receptor (Homo sapiens, UniProt P41145); assay: Displacement of [3H]U-69,593 from human KOR expressed in CHO cells; assay type: cell-based
Kappa-type opioid receptor, sequence (P41145 whole entry): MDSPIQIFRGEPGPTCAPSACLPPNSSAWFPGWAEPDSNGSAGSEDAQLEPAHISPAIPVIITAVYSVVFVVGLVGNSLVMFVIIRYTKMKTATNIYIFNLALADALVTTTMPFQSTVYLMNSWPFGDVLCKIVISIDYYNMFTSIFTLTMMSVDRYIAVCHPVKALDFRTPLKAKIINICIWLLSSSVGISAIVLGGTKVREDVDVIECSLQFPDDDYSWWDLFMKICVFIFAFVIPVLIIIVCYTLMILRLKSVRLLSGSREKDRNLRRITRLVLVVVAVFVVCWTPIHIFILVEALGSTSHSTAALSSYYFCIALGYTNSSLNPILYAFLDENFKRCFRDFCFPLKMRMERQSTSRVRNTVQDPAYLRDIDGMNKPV

Homo sapiens [3] = organism: Homo sapiens; assay: Selectivity index, ratio of Ki for human MOR to Ki for human DOR
Homo sapiens [4] = organism: Homo sapiens; assay: Selectivity index, ratio of Ki for human KOR to Ki for human DOR
[5] = target: T1, Delta-type opioid receptor; assay: Inverse agonist activity at human DOR expressed in CHO cell membranes by [35S]GTPgammaS binding assay; assay type: functional
[6] = target: T1, Delta-type opioid receptor; assay: Inverse agonist activity at human DOR expressed in CHO cell membranes by [35S]GTPgammaS binding assay relative to control; assay type: functional

Compound | pKi (Mu-type opioid receptor) | pKi [1] | pKi [2] | Ratio Ki (Homo sapiens [3]) | Ratio Ki (Homo sapiens [4]) | pEC50 [5] | Emax [6] [%]
Oc1ccc2c3c1O[C@H]1c4nc5ccccc5cc4C[C@@]4(O)[C@@H](C2)N(CCF)CC[C@]314 | 6.37 | 8.25 | 6.07 | 75.7 | 153 | 7.61 | 27.1
CCCN1CC[C@]23c4c5ccc(O)c4O[C@H]2c2nc4ccccc4cc2C[C@@]3(O)[C@H]1C5 | 6.91 | 8.56 | 6.50 | 44.5 | 113 | 8.23 | 62.4
CCN1CC[C@]23c4c5ccc(O)c4O[C@H]2c2nc4ccccc4cc2C[C@@]3(O)[C@H]1C5 | 6.17 | 8.05 | 6.32 | 75.4 | 53.7 | 8.17 | 41.2
Oc1ccc2c3c1O[C@H]1c4[nH]c5ccccc5c4C[C@@]4(O)[C@@H](C2)N(CC(F)(F)F)CC[C@]314 | < 6.00 | 6.87 | < 6.00 |  |  | 7.34 | -44.8
CCCN1CC[C@]23c4c5ccc(O)c4O[C@H]2c2[nH]c4ccccc4c2C[C@@]3(O)[C@H]1C5 | 6.88 | 8.95 | 7.13 | 120 | 66.9 |  | 
Oc1ccc2c3c1O[C@H]1c4nc5ccccc5cc4C[C@@]4(O)[C@@H](C2)N(CC(F)(F)F)CC[C@]314 | < 6.00 | 7.42 | < 6.00 |  |  |  | 
C=CCN(CC=C)[C@@H](Cc1ccc(O)cc1)C(=O)NC(C)(C)C(=O)NC(C)(C)C(=O)N[C@@H](Cc1ccccc1)C(=O)N[C@@H](CC(C)C)C(=O)O ({Tyr(Nα,Nα-allyl2)}-[Aib][Aib]FL-OH) |  |  |  |  |  | 6.94 | -100
Oc1ccc2c3c1O[C@H]1c4[nH]c5ccccc5c4C[C@@]4(O)[C@@H](C2)N(CCF)CC[C@]314 | 6.17 | 8.71 | 6.40 | 348 | 204 | 6.66 | -38.1
CCN1CC[C@]23c4c5ccc(O)c4O[C@H]2c2[nH]c4ccccc4c2C[C@@]3(O)[C@H]1C5 | 6.10 | 8.57 | 6.33 | 291 | 172 |  | 
Oc1ccc2c3c1O[C@H]1c4nc5ccccc5cc4C[C@@]4(O)[C@@H](C2)N(CC2CC2)CC[C@]314 | 7.68 | 9.39 | 7.96 | 51.1 | 27.1 | 8.01 | 32.4
Oc1ccc2c3c1O[C@H]1c4[nH]c5ccccc5c4C[C@@]4(O)[C@@H](C2)N(CC(F)F)CC[C@]314 | < 6.00 | 7.81 | < 6.00 |  |  | 7.76 | -48.6
Oc1ccc2c3c1O[C@H]1c4nc5ccccc5cc4C[C@@]4(O)[C@@H](C2)N(CC(F)F)CC[C@]314 | < 6.00 | 7.74 | < 6.00 |  |  |  | 
